Assay results from patent US20040063685A1, “Combination Drugs” (priority 2000, published 2004).

What was measured:
[1] = system: E. coli O111 strain; test: Survival of mice intraperitoneally inoculated with E. coli O111, combined use with ceftazidime; type: in vivo; settings: FIG. 1
Procedure: The E. coli O111 strain was suspended in 5% mucin, and 0.5 ml thereof was intraperitoneally inoculated to mice (BALB/c, male, 5-week-old) (9×10^4 CFU per mouse). At 1 hr after inoculation, an antibacterial agent, ceftazidime (CAZ, 12.5 μg/kg) was administered subcutaneously, and compound 29 (test compound 30 mg/kg) of Reference Example B65 suspended in a 0.5% methyl cellulose (MC) solution was simultaneously administered orally.

[2] = crystals

| Structure (SMILES) | survival rate ([1]; combined use: compound 29 30 mg/kg orally (0.5% methyl cellulose) and ceftazidime (CAZ) 12.5 μg/kg subcutaneously at 1 hr after inoculation, BALB/c male mice, 9×10^4 CFU per mouse, monitored for a week) | effectiveness of test compound alone (survival) ([1]; compound 29 30 mg/kg orally without ceftazidime, BALB/c mice infected with E. coli O111) | hygroscopicity [2] |
| --- | --- | --- | --- |
| CCOC(=O)C1=CCCCC1S(=O)(=O)Nc1ccc(F)cc1Cl (stereo not drawn) [compound 29, ethyl 6-[N-(2-chloro-4-fluorophenyl)sulfamoyl]-1-cyclohexene-1-carboxylate] | remarkably increases | low effectiveness | – |
| CCOC(=O)C1=CCCCC1S(=O)(=O)Nc1ccc(F)cc1Cl (stereo not drawn) [crystals of compound B, d-ethyl 6-[N-(2-chloro-4-fluorophenyl)sulfamoyl]-1-cyclohexene-1-carboxylate] | – | – | low |
